Data on five molecules can be found in patent US9340600B2 (Indiana University Research and Technology Corporation, priority 2012, dated 2016).

*1 amine or outer side, *2 acyl side, *3 side chain or, on linkers, in order; H or OH if unused. Where a SMILES comes first, the peptide text is derived from it. Side-chain parts run from the residue outwards. [ ]: non-standard residue; d: D form. The star is where a group is joined. γGlu = O=C(O)[C@H](CCC(=O)[*:2])N[*:1]; Palmitoyl = CCCCCCCCCCCCCCCC(=O)*; Aib = CC(C)(N)C(=O)O

Holding throughout (type): cell-based
The target of test [1] is T1, GIP receptor (Homo sapiens, UniProt P48546).
T1 construct: expressed in transfected cells; host or cells: HEK293
T1 sequence (P48546 22-466): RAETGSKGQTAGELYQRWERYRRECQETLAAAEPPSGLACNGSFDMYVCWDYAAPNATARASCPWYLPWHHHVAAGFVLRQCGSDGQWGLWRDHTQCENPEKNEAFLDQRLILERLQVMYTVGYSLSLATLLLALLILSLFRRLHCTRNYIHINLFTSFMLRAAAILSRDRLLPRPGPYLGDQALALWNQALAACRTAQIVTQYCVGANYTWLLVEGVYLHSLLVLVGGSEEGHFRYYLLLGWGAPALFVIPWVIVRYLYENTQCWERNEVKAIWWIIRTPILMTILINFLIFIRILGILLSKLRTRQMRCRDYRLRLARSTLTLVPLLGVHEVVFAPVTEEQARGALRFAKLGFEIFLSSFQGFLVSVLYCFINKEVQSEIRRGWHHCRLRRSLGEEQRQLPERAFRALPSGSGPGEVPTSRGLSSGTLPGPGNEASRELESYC
Nature of the test: cAMP induction, firefly luciferase-based reporter assay in HEK293 cells co-transfected with GIP receptor. To be noted: EC50 at GIP Receptor, Table 2, analogs of SEQ ID NO: 18 varying at positions 16-21. An excerpt: (§1) This example describes an exemplary method of testing the biological activity of the peptides of the present disclosures, which method involves assaying cAMP synthesis.

Test [2] deals with T2, glucagon receptor (Homo sapiens, UniProt P47871).
T2 construct: expressed in transfected cells; host or cells: HEK293
Nature of the test: cAMP induction, firefly luciferase-based reporter assay in HEK293 cells co-transfected with glucagon receptor. To be noted: EC50 at Glucagon Receptor, Table 2, analogs of SEQ ID NO: 18 varying at positions 16-21.
Excerpt: as §1
(In general: A reporter such as luciferase makes a cellular process visible.)

For test [3], the target named is T3, GLP-1 receptor (Homo sapiens, UniProt P43220).
T3 construct: expressed in transfected cells; host or cells: HEK293
Briefly: cAMP induction, firefly luciferase-based reporter assay in HEK293 cells co-transfected with GLP-1 receptor. To be noted: EC50 at GLP-1 Receptor, Table 2, analogs of SEQ ID NO: 18 varying at positions 16-21.
Excerpt: as §1

T2 sequence (P47871 26-477): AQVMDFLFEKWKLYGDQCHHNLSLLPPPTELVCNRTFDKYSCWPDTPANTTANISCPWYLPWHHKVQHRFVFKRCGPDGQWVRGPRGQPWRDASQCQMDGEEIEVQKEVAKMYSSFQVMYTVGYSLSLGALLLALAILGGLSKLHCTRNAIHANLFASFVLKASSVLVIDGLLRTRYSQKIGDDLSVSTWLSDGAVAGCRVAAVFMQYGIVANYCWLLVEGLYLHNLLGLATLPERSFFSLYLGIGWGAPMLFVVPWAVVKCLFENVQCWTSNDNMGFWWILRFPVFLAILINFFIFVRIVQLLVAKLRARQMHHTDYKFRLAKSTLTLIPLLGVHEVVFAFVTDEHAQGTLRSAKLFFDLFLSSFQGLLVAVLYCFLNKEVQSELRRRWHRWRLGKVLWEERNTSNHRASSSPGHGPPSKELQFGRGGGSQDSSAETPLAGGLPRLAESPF
T3 sequence (P43220 24-463): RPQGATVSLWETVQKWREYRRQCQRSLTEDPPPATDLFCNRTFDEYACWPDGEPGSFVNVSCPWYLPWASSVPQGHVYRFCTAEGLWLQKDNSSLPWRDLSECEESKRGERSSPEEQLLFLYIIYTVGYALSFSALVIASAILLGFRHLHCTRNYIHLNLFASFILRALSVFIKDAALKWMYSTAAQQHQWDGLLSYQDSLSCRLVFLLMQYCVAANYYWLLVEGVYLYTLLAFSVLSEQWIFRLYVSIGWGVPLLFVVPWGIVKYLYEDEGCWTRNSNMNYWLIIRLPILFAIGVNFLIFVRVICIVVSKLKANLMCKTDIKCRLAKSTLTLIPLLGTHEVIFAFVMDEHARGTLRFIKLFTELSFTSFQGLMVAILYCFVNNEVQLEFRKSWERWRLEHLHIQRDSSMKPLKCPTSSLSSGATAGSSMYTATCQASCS

With `CCCCCCCCCCCCCCCC(=O)N[C@@H](CCC(=O)NCCCC[C@H](NC(=O)[C@H](CC(=O)O)NC(=O)[C@H](CO)NC(=O)[C@@H](NC(=O)[C@H](Cc1ccccc1)NC(=O)[C@@H](NC(=O)CNC(=O)[C@H](CCC(N)=O)NC(=O)C(C)(C)NC(=O)[C@@H](N)Cc1c[nH]cn1)[C@@H](C)O)[C@@H](C)O)C(=O)N[C@@H](CO)C(=O)N[C@@H](CCCCN)C(=O)N[C@@H](Cc1ccc(O)cc1)C(=O)N[C@@H](CC(C)C)C(=O)N[C@@H](CC(=O)O)C(=O)N[C@@H](CCCCN)C(=O)N[C@@H](Cc1c[nH]cn1)C(=O)N[C@@H](C)C(=O)N[C@@H](C)C(=O)NC(C)(C)C(=O)N[C@@H](CCC(=O)O)C(=O)N[C@@H](Cc1ccccc1)C(=O)N[C@H](C(=O)N[C@@H](CCC(N)=O)C(=O)N[C@@H](Cc1c[nH]c2ccccc12)C(=O)N[C@@H](CC(C)C)C(=O)N[C@@H](CC(C)C)C(=O)N[C@@H](CC(=O)O)C(=O)NCC(=O)NCC(=O)N1CCC[C@H]1C(=O)N[C@@H](CO)C(=O)N[C@@H](CO)C(=O)NCC(=O)N[C@@H](C)C(=O)N1CCC[C@H]1C(=O)N1CCC[C@H]1C(=O)N1CCC[C@H]1C(=O)N[C@@H](CO)C(N)=O)C(C)C)C(=O)O` [compound 28] (H-H[Aib]QGTFTSDK([γGlu-Palmitoyl])SKYLDKHAA[Aib]EFVQWLLDGGPSSGAPPPS-NH2; N-terminus assumed), the values for the EC50 in test [1], in test [2] and in test [3] were 1 pM, 6 pM and 2 pM, respectively.
With `CCCCCCCCCCCCCCCC(=O)N[C@@H](CCC(=O)NCCCC[C@H](NC(=O)[C@H](CC(=O)O)NC(=O)[C@H](CO)NC(=O)[C@@H](NC(=O)[C@H](Cc1ccccc1)NC(=O)[C@@H](NC(=O)CNC(=O)[C@H](CCC(N)=O)NC(=O)C(C)(C)NC(=O)[C@@H](N)Cc1c[nH]cn1)[C@@H](C)O)[C@@H](C)O)C(=O)N[C@@H](CO)C(=O)N[C@@H](CCCCN)C(=O)N[C@@H](Cc1ccc(O)cc1)C(=O)N[C@@H](CC(C)C)C(=O)N[C@@H](CC(=O)O)C(=O)N[C@@H](CCC(=O)O)C(=O)N[C@@H](CCCNC(=N)N)C(=O)N[C@@H](C)C(=O)N[C@@H](C)C(=O)N[C@@H](CCCCN)C(=O)N[C@@H](CC(=O)O)C(=O)N[C@@H](Cc1ccccc1)C(=O)N[C@H](C(=O)N[C@@H](CCC(N)=O)C(=O)N[C@@H](Cc1c[nH]c2ccccc12)C(=O)N[C@@H](CC(C)C)C(=O)N[C@@H](CC(C)C)C(=O)N[C@@H](CC(=O)O)C(=O)NCC(=O)NCC(=O)N1CCC[C@H]1C(=O)N[C@@H](CO)C(=O)N[C@@H](CO)C(=O)NCC(=O)N[C@@H](C)C(=O)N1CCC[C@H]1C(=O)N1CCC[C@H]1C(=O)N1CCC[C@H]1C(=O)N[C@@H](CO)C(N)=O)C(C)C)C(=O)O` [compound 20] (H-H[Aib]QGTFTSDK([γGlu-Palmitoyl])SKYLDERAAKDFVQWLLDGGPSSGAPPPS-NH2; N-terminus assumed), the half-maximal effective concentration (EC50) in test [1] was 5 pM; in test [2], 6 pM; in test [3] it was 10 pM.
Turning to `CCCCCCCCCCCCCCCC(=O)N[C@@H](CCC(=O)NCCCC[C@H](NC(=O)[C@H](CC(=O)O)NC(=O)[C@H](CO)NC(=O)[C@@H](NC(=O)[C@H](Cc1ccccc1)NC(=O)[C@@H](NC(=O)CNC(=O)[C@H](CCC(N)=O)NC(=O)C(C)(C)NC(=O)[C@@H](N)Cc1c[nH]cn1)[C@@H](C)O)[C@@H](C)O)C(=O)N[C@@H](CO)C(=O)N[C@@H](CCCCN)C(=O)N[C@@H](Cc1ccc(O)cc1)C(=O)N[C@@H](CC(C)C)C(=O)N[C@@H](CC(=O)O)C(=O)N[C@@H](CCC(=O)O)C(=O)N[C@@H](CCCNC(=N)N)C(=O)N[C@@H](C)C(=O)N[C@@H](C)C(=O)NC(C)(C)C(=O)N[C@@H](CCC(=O)O)C(=O)N[C@@H](Cc1ccccc1)C(=O)N[C@H](C(=O)N[C@@H](CCC(N)=O)C(=O)N[C@@H](Cc1c[nH]c2ccccc12)C(=O)N[C@@H](CC(C)C)C(=O)N[C@@H](CC(C)C)C(=O)N[C@@H](CC(=O)O)C(=O)NCC(=O)NCC(=O)N1CCC[C@H]1C(=O)N[C@@H](CO)C(=O)N[C@@H](CO)C(=O)NCC(=O)N[C@@H](C)C(=O)N1CCC[C@H]1C(=O)N1CCC[C@H]1C(=O)N1CCC[C@H]1C(=O)N[C@@H](CO)C(N)=O)C(C)C)C(=O)O` [compound 21] (H-H[Aib]QGTFTSDK([γGlu-Palmitoyl])SKYLDERAA[Aib]EFVQWLLDGGPSSGAPPPS-NH2; N-terminus assumed), the EC50 in test [1] amounted to 1 pM; in test [2] it was 2 pM; in test [3], 4 pM.
Taken in the same sequence, the figures for `CCCCCCCCCCCCCCCC(=O)N[C@@H](CCC(=O)NCCCC[C@H](NC(=O)[C@H](CC(=O)O)NC(=O)[C@H](CO)NC(=O)[C@@H](NC(=O)[C@H](Cc1ccccc1)NC(=O)[C@@H](NC(=O)CNC(=O)[C@H](CCC(N)=O)NC(=O)C(C)(C)NC(=O)[C@@H](N)Cc1c[nH]cn1)[C@@H](C)O)[C@@H](C)O)C(=O)N[C@@H](CO)C(=O)N[C@@H](CCCCN)C(=O)N[C@@H](Cc1ccc(O)cc1)C(=O)N[C@@H](CC(C)C)C(=O)N[C@@H](CC(=O)O)C(=O)N[C@@H](CCC(=O)O)C(=O)N[C@@H](CCC(N)=O)C(=O)N[C@@H](C)C(=O)N[C@@H](C)C(=O)NC(C)(C)C(=O)N[C@@H](CCC(=O)O)C(=O)N[C@@H](Cc1ccccc1)C(=O)N[C@H](C(=O)N[C@@H](CCC(N)=O)C(=O)N[C@@H](Cc1c[nH]c2ccccc12)C(=O)N[C@@H](CC(C)C)C(=O)N[C@@H](CC(C)C)C(=O)N[C@@H](CC(=O)O)C(=O)NCC(=O)NCC(=O)N1CCC[C@H]1C(=O)N[C@@H](CO)C(=O)N[C@@H](CO)C(=O)NCC(=O)N[C@@H](C)C(=O)N1CCC[C@H]1C(=O)N1CCC[C@H]1C(=O)N1CCC[C@H]1C(=O)N[C@@H](CO)C(N)=O)C(C)C)C(=O)O` [compound 26] (H-H[Aib]QGTFTSDK([γGlu-Palmitoyl])SKYLDEQAA[Aib]EFVQWLLDGGPSSGAPPPS-NH2) were 1 pM, 4 pM and 1 pM.
Regarding `CCCCCCCCCCCCCCCC(=O)N[C@@H](CCC(=O)NCCCC[C@H](NC(=O)[C@H](CC(=O)O)NC(=O)[C@H](CO)NC(=O)[C@@H](NC(=O)[C@H](Cc1ccccc1)NC(=O)[C@@H](NC(=O)CNC(=O)[C@H](CCC(N)=O)NC(=O)C(C)(C)NC(=O)[C@@H](N)Cc1c[nH]cn1)[C@@H](C)O)[C@@H](C)O)C(=O)N[C@@H](CO)C(=O)N[C@@H](CCCCN)C(=O)N[C@@H](Cc1ccc(O)cc1)C(=O)N[C@@H](CC(C)C)C(=O)N[C@@H](CC(=O)O)C(=O)N[C@@H](CCC(=O)O)C(=O)N[C@@H](CCCNC(=N)N)C(=O)N[C@@H](C)C(=O)NC(C)(C)C(=O)N[C@@H](C)C(=O)N[C@@H](CCC(=O)O)C(=O)N[C@@H](Cc1ccccc1)C(=O)N[C@H](C(=O)N[C@@H](CCC(N)=O)C(=O)N[C@@H](Cc1c[nH]c2ccccc12)C(=O)N[C@@H](CC(C)C)C(=O)N[C@@H](CC(C)C)C(=O)N[C@@H](CC(=O)O)C(=O)NCC(=O)NCC(=O)N1CCC[C@H]1C(=O)N[C@@H](CO)C(=O)N[C@@H](CO)C(=O)NCC(=O)N[C@@H](C)C(=O)N1CCC[C@H]1C(=O)N1CCC[C@H]1C(=O)N1CCC[C@H]1C(=O)N[C@@H](CO)C(N)=O)C(C)C)C(=O)O` [compound 23] (H-H[Aib]QGTFTSDK([γGlu-Palmitoyl])SKYLDERA[Aib]AEFVQWLLDGGPSSGAPPPS-NH2), the EC50 in test [1] stood at 13 pM; in test [2], 261 pM; in test [3] it was 7 pM.

Broadly, the EC50 is the concentration at which the effect is half-maximal.
